The target of data set [1] is T1, human EP4 prostaglandin receptor (Homo sapiens, UniProt P35408).
T1 construct: expressed in transfected cells; host or cells: HEK-EBNA cells
Briefly: FLIPR Ca++ flux test. The note with it: cells expressing human EP4, read-out: in vitro EC50 (concentration at 50% of maximal efficacy). Type of data set: cell-based. The procedure: HEK-293 (EBNA) cells, stably expressing one type or subtype of recombinant human prostaglandin receptors (prostaglandin receptors expressed: hDP/Gqs5; hEP1; hEP2/Ggs5; hEP3A/Gqi5; hEP4/Ggs5; hFP; hIP; hTP), are cultured in 100 mm culture dishes in high-glucose DMEM medium containing 10% fetal bovine serum, 2 mM 1-glutamine, 250 μg/ml geneticin (G418) and 200 μg/ml hygromycin B as selection markers, and 100 units/ml penicillin G, 100 μg/ml streptomycin and 0.25 μg/ml amphotericin B.
Transfectant cells are seeded at a density of 5×10^4 cells per well in Biocoat®. Poly-D-lysine-coated black-wall, clear-bottom 96-well plates (Becton-Dickinson) and allowed to attach overnight in an incubator at 37° C. Cells are then washed two times with HBSS-HEPES buffer (Hanks Balanced Salt Solution without bicarbonate and phenol red, 20 mM HEPES, pH 7.4) using a Denley Cellwash plate washer (Labsystems). […]
Cells are excited with an Argon laser at 488 nm, and emission measured through a 510-570 nm bandwidth emission filter (FLIPR.™., Molecular Devices, Sunnyvale, Calif.). […] The peak increase in fluorescence intensity is recorded for each well. […] The peak fluorescence change in each drug-containing well is then expressed relative to the controls. […]

Data set [2] concerns the target T1, human EP4 prostaglandin receptor. Briefly: Activity test measuring changes in intracellular cAMP in HEK-EBNA cells. The class given is cell-based. Particulars: HEK-EBNA cells expressing human EP4, read-out: in vitro EC50 (concentration at 50% of maximal efficacy). How it is done: The dosage of the prostaglandin EP4 agonist component employed in accordance with the present invention varies over a relatively wide range and depends on factors well known in the medicinal arts including, but not limited to: the weight of the individual to whom the agonist component is administered, the general health status/condition of such individual, the disease/condition sought to be treated/prevented by such administration, the severity of such disease/condition in such individual, the potency of the specific EP4 receptor agonist component being administered, the sensitivity of such individual to the specific agonist component being administered, the mode of administration, the age of such individual, the sex of such individual, the pregnancy status of such individual, the other ongoing drug therapies being administered to such individual and the like factors. The compound (Z)-7-{(1R,4S,5R)-5-[(E)-5-(3-chloro-benzo[b]thiophene-2-yl)-3-hydroxy-pent-1-enyl]-4-hydroxy-3,3-dimethyl-2-oxo-cyclopentyl}-hept-5-enoic acid has an in vitro EC50 (concentration at 50% of maximal efficacy) of between 0.03 and 0.1 nM in both the FLIPR® Ca^++ flux test and in an alternate activity test measuring changes in the intracellular concentration of cAMP in HEK-EBNA cells expressing the human EP4 prostaglandin receptor.

Data set [3] concerns PI3k/Akt pathway (Akt phosphorylation) in IEC-18 cells. Briefly: Akt phosphorylation Western blot in IEC-18 cell lysates. Type of data set: cell-based, rat. Particulars: 24 hours; for Akt phosphorylation: 5 μM SC-560, 10 μM celecoxib or 10 μM indomethacin. The procedure: Rat intestinal epithelial cells (IEC-18 cells) are immortalized normal epithelial cells purchased from the American Type Culture Collection (ATCC). For these experiments, IEC-18 cells were cultured in high glucose Delbecco's Modified Eagle's Medium (DMEM) at 37° C. under 5% CO2 and incubated for 24 hours with either a) 5 μM of the COX-1 inhibitor SC-560 (purchased from Sigma-Aldrich, St. Louis, Mo.), 10 μM of the COX-2 inhibitor celecoxib, or 10 μM of the COX-½ inhibitor indomethacin. Drugs were provided in a 0.1% dimethylsulfoxide (DMSO) vehicle.
The PI3k/Akt pathway is monitored using the following general assay procedure. Following incubation cell lysates are collected with lysis buffer containing phosphatase and proteinase inhibitors. The supernanats are collected and protein concentrations are measured. Then SDS(sodium dodecyl sulfate) sample buffers are made to make sure final protein concentration is equal in each sample and boiled for minutes at 100° C. Then the samples are loaded on to a 4%-12% pre-made SDS-PAGE (polyacrylamide gel electrophoresis) and the gel is developed under electrophoresis. When the samples reach the bottom of the gel, the gel is removed from the electrophoresis equipment and transferred to a nitrocellulose membrane and the membrane blocked with milk. The membrane is incubated with a primary antibody selective for either a) total Akt or b) phosphrylated Akt overnight at 4° C. A secondary antibody having a conjugated horseradish peroxidase (HRP) moiety is used to bind the constant regions of the primary antibodies. The membrane is washed under conditions favoring selective antibody binding. Finally, the HRP is detected using a enzymatically initiated chemiluminescent substrate such as Super Signal® ELISA Pico Substrates, available from Thermo Fisher Scientific.
(A western blot detects proteins with antibodies after separation by electrophoresis.)

In the next data set the test system is IEC-18 cells. Briefly: Doxorubicin/celecoxib-induced apoptosis of IEC-18 cells by flow cytometry. The class given is cell-based, rat. The note with it: 48 hours. How it is done:
IEC-18 cells were cultured in high glucose DMEM containing 10% fetal bovine serum (FBS), 1% penicillin, 1% streptomycin, and 50 unit insulin essentially as indicated in Example 101 for 48 hours in the presence of the 0.05 μg/ml chemotherapy agent doxorubicin to induce apoptosis. In the presence of 10 μM celecoxib (which inhibits endogenous prostaglandin PGE2 expression), apoptosis of doxorubicin-treated IEC-18 cells proceeds within 48 hours at such very low concentrations of doxorubicin. Finally, the cells collected by trypsin were subjected to flow cytometry analysis for identification of the percentage of cells in different stages of the cell cycle.
Cultured cells were prepared for flow cytometry by trypsinization and centrifugation. The cells were then washed with cold phosphate buffered saline solution (PBS), then fixed with cold 70% ethanol overnight. The cells were then again washed with PBS and stained with propidium iodide, a nucleic acid intercalating dye, in the presence of RNase for 30 minutes at room temperature. The cells were then sorted using the buffer provided by Becton-Dickenson, the maker of the flow cytometry equipment.
Additionally, using CellQuest® software (Becton-Dickenson) a quantification of the percent of apoptosis occurring in IEC-18 cells after 48 hours' incubation was performed. […]
On the technique in general: Flow cytometry measures light scatter and fluorescence of single cells or particles in a stream.

For data set [4], the system named is C57BL/6 mice. Briefly: Acetic acid-induced gastric ulcer model in mice. Type of data set: in vivo. The text has this:
Gastric ulcers were produced in C57BL/6 mice by using 40% acetic acid as follows. Animals were anesthetized. The abdomen of each animal was surgically opened, and the stomach exposed. A 3 mm curette was placed onto the anterior surface of each stomach. A solution of 40% acetic acid was placed inside the curette. The curette prevents damage to surrounding tissue. The acetic acid treatment causes damage to blood vessels of the stomach, producing chemical death to the mucous layer.
On the third day following induction of ulceration, the animals were given various treatments by oral gavage. First, vehicle (4% DMSO-corn oil) or a low dose (3 mg/kg/day) of indomethacin in 4% DMSO-corn oil was used. This dose of indomethacin has been reported not to induce gross lesions on the stomach, although it can inhibit the production of endogenous prostglandin PGE2.
On day 7 blood was withdrawn for hematology analysis from sacrificed animals, and subjected to automated testing for standard hematological parameters. Ulcer areas (defined as the regions of the stomach not covered by stomach mucosal epithelial cells) were measured by dissection microscopy for macroscopic analysis; additionally, the widest section of each ulcer sample was measured and observed as the size index under microscopy. The stomachs were processed for pathological analysis by dissection and section through the widest part of the ulcer. Sections were stained using hematoxylin & eosin.
Mice were then treated with 10 nM Compound 7 or the vehicle under otherwise identical conditions. In this experiment the vehicle was 4% DMSO in corn oil in a volume of 0.1 ml. The mice were sacrificed and the stomachs examined on either the 7th day or the 11th day following ulceration. […] Under dissection microscopy, the areas of the ulcers in mice treated with Compound 7 were 60% and 32% of the control on days 7 and 11, respectively. […] (FIG. 4B).

For data set [5], the system named is C57BL/6 mice. Briefly: Acetic acid-induced gastric ulcer model in mice. The class given is in vivo. The source holds these as a separate data set.
Setting [6] is: 0.1 mg/kg/d Compound 7 + 3 mg/kg/d indomethacin vs control mice.
[7] abbreviates: indomethacin 3 mg/kg/day oral gavage, day 7, vs vehicle.

The record followed here is US20100081631A1, “METHODS AND COMPOSITIONS FOR TREATING GASTROINTENSTIAL DISORDERS” (priority 2006, published 2010).

T1 sequence (P35408 whole entry): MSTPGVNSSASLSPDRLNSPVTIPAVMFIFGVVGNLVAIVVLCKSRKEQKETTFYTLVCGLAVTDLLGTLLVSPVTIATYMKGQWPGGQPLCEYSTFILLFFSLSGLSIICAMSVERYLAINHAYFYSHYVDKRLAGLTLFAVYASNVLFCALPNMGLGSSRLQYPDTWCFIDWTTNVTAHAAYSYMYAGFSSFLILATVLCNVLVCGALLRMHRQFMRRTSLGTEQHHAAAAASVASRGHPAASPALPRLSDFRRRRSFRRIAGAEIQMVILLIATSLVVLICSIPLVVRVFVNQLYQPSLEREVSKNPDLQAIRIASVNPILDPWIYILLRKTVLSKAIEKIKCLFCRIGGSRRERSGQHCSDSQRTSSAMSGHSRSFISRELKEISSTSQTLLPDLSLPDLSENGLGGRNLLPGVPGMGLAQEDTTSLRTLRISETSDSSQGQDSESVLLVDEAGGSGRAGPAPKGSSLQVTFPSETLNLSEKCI

Regarding `CC1(C)C(=O)[C@H](C/C=C\CCCC(=O)O)[C@@H](/C=C/C(O)CCc2sc3ccccc3c2Cl)[C@@H]1O` (stereo partly drawn) [Compound 7, (Z)-7-{(1R,4S,5R)-5-[(E)-5-(3-chloro-benzo[b]thiophene-2-yl)-3-hydroxy-pent-1-enyl]-4-hydroxy-3,3-dimethyl-2-oxo-cyclopentyl}-hept-5-enoic acid], the EC50 in data set [1] and in data set [2] was 30 to 100 pM in each case. Moreover, the “Akt phosphorylation on co-incubation with indomethacin” value in data set [3] (10 nM Compound 7 + 10 μM indomethacin vs indomethacin alone) is recorded as “maintained Akt phosphorylation at higher levels”. Besides, in the data set on IEC-18 cells (10 nM Compound 7 added to 0.05 μg/ml doxorubicin + 10 μM celecoxib), the percent apoptosis result was “approximately 5%”. The “ulcer sizes vs vehicle” value with C57BL/6 mice [4] (10 nM Compound 7, vehicle 4% DMSO in corn oil, day 7 or 11) is recorded as “significantly smaller ulcer sizes”. In addition, the “areas of the ulcers under dissection microscopy” value is listed as 60 % of the control with C57BL/6 mice [4] (Compound 7, day 7) and 32 % of the control with C57BL/6 mice [4] (Compound 7, day 11). Moreover, the “inflammatory cell infiltrations and necrotic tissue in granulation tissue” value in the data set with C57BL/6 mice [4] (Compound 7 vs control group) is listed as “significantly less”. Also, the “gross and microscopic morphologies of the ulcer tissue” value in the data set on C57BL/6 mice [4] (Compound 7 vs vehicle, day 7) was “stimulates healing of ulcer and facilitate the removal of necrosis tissue”. The “hematocrit (HCT)” value with C57BL/6 mice [5] (setting [6]) is listed as “significantly greater”. In addition, the “hemoglobin (HGB)” value with C57BL/6 mice [5] (setting [6]) is “significantly greater”. Further, the “number of red blood cells (RBC)” value in the data set on C57BL/6 mice [5] (0.1 mg/kg/d Compound 7 + 3 mg/kg/d indomethacin vs control mice, n=20) is “significantly greater”. The “blood loss (hematology)” value in the data set with C57BL/6 mice [5] (0.1 mg/kg/d Compound 7 + 3 mg/kg/d indomethacin vs indomethacin alone) was “significantly less blood loss”.

`COc1ccc(-n2nc(C(F)(F)F)cc2-c2ccc(Cl)cc2)cc1` [SC-560]: in data set [3], the Akt phosphorylation entry is reported as “inhibited Akt phosphorylation”.

`COc1cccc2c1C(=O)c1c(O)c3c(c(O)c1C2=O)C[C@@](O)(C(=O)CO)C[C@@H]3O[C@H]1C[C@H](N)[C@H](O)[C@H](C)O1` [doxorubicin, reference compound]: the percent apoptosis entry in the data set with IEC-18 cells (0.05 μg/ml doxorubicin with 10 μM celecoxib) was “about 13%”.

Turning to `COc1ccc2c(c1)c(CC(=O)O)c(C)n2C(=O)c1ccc(Cl)cc1` [indomethacin, reference compound], the Akt phosphorylation entry in data set [3] is recorded as “inhibited phosphorylation of Akt to a greater extent that did SC-560 or celecoxib”. For the same compound, the “spontaneous healing of gastric ulcers (gross and microscopic ulcer size)” value in the data set with C57BL/6 mice [4] (indomethacin 3 mg/kg/day oral gavage from day 3, day 7, vs vehicle) was “delayed the spontaneous healing of gastric ulcers”. For the same compound, in the data set on C57BL/6 mice [4] (setting [7]), the “blood loss at ulcer sites” value is listed as “exacerbate blood loss at ulcer sites” and the “inflammation (lymphocytes in the blood)” value is “exacerbated inflammation”.
